The subject of the test is Cercospora beticola (CERCBE), leaf spot of sugar beet. Nature of the test: Field assessment of Cercospora beticola (CERCBE) in sugar beets. The format is in vivo. The settings on record: for % Control CERCBE (based on AUDPC): sugar beet field, natural infection. The source says:
Field Assessment of Cercospora beticola (CERCBE) in Sugar Beets:
A fungicidal treatment containing an EC formulation of compound I by itself and in combination with four adjuvants was sprayed on sugar beet plants (BEAVA, Corvina variety) six times during the course of 7 weeks ([…]) under natural infection with CERCBE. The commercial standard used in the study was difenoconazole (Score) and was applied at 100 g ai/ha. The treatment was part of an experimental trial designed as a randomized complete block with four replications and a plot of approximately 1×2 m. Compound I was applied at water volume of 400 L/ha, using a backpack precision plot sprayer (BKPCKAIR, EVEN FAN TEEJET TP 8004EVS Nozzle, 1 m boom width) and pressurized at 250 kPa.
Disease severity was recorded as a percentage of visual diseased foliage on whole plot. Cercospora leaf spot infection was assessed five times, 6 days after application A (DAAA); 6 DAAC; 12 DAAB; and 7 and 21 DAAF. The disease infection was recorded following EPPO PP 1/1 (4) guideline prescriptions. Area under the disease progress curve (AUDPC) was calculated for each plot using the sets of recorded severity data. Relative AUDPC (% control based on AUDPC) was calculated as percent of the nontreated control.

In the case of `CC1COC(Cn2cncn2)(c2ccc(Oc3ccc(Cl)cc3)cc2Cl)O1` (stereo not shown) [Difenoconazole, difenoconazole, reference compound], the “% Control CERCBE (based on AUDPC)” value (100 g ai/ha, Score (commercial standard)) is given as “A (75-100)”.
Take `N#Cc1ccc(Oc2ccc(C(F)(F)C(O)(Cn3nc[nH]c3=S)c3ccc(F)cc3F)nc2)cc1` (stereo not shown) [Compound I, 4-((6-(2-(2,4-difluorophenyl)-1,1-difluoro-2-hydroxy-3-(5-thioxo-4,5-dihydro-1H-1,2,4-triazol-1-yl)propyl)pyridin-3-yl)oxy)benzonitrile]: for the setting “100 g ai/ha in 0.15% Phase II, Ethomeen, Lutensol or Agnique BP-420, ANOVA and Tukey's test (p=0.10)”, the “CERCBE control compared with difenoconazole (statistical)” value is on record as “statistically equivalent to that of the commercial standard difenoconazole at 100 g ai/ha”. The “level of control of CERCBE compared with difenoconazole (numerical)” value (100 g ai/ha in Agnique BP-420 (50% EC formulation at 0.3% v/v) or 0.15% Lutensol) was “numerically equivalent to that of difenoconazole at 100 g ai/ha”. For the same compound, under “leaf spot of sugar beet, general statement”, the “fungicidal effect on Cercospora beticola” value is listed as “significant fungicidal effect”. For the same compound, the “% Control CERCBE (based on AUDPC)” value (50 g ai/ha, adjuvant Agnique BP-420 (50% w/w at 0.3% v/v)) was “B (51-74)”; the “% Control CERCBE (based on AUDPC)” value (50 g ai/ha, no adjuvant) is recorded as “B (51-74)”; the “% Control CERCBE (based on AUDPC)” value (100 g ai/ha, adjuvant Agnique BP-420 (50% w/w at 0.3% v/v)) was “A (75-100)”; the “% Control CERCBE (based on AUDPC)” value (100 g ai/ha, adjuvant Ethomeen T18H (0.15% v/v)) was “B (51-74)”; the “% Control CERCBE (based on AUDPC)” value (100 g ai/ha, adjuvant Lutensol TDA 9 (0.15% v/v)) is on record as “A (75-100)”; the “% Control CERCBE (based on AUDPC)” value (100 g ai/ha, adjuvant Phase II (0.15% v/v)) is “B (51-74)”. Also, the “% Control CERCBE (based on AUDPC)” value by setting is: (100 g ai/ha, no adjuvant) “B (51-74)”; (150 g ai/ha, adjuvant Agnique BP-420 (50% w/w at 0.3% v/v)) “A (75-100)”; (150 g ai/ha, no adjuvant) “B (51-74)”.

The record behind these values is US20210274787A1, “USE OF A DIFLUORO-(2-HYDROXYPROPYL)PYRIDINE COMPOUND AS A FUNGICIDE FOR CONTROL OF LEAF SPOT OF SUGAR BEETS” (Dow AgroSciences LLC, priority 2016, published 2021).
